Patent publication US9931338B2, “Syk inhibitors” (Gilead Sciences, Inc., priority 2014, dated 2018)
Structures can show the parent of a compound that is named as a salt.

Tests used:
[1] = tested on: human hepatocytes; test: Human Hepatocyte Stability Assay; assay type: in vitro ADME; details: comparison table, Example 12; head prints '(units)', method states L/hr/kg
Description: The human […] stability of the compounds as predicted hepatocyte clearance in L/hr/kg was assessed. Compounds to be tested were diluted to 200 μM (4 μl of 10 mM DMSO stock into 196 μl ACN:H2O (50:50). Propranolol was used as a positive control, and buffer only without hepatocytes as 0% control. These were further diluted 4 μl with 891 μl KHB buffer (InVitroGRO catalog number Z99074) to provide 2× dosing solution. To each well of 24 well plate, 250 μl of the 2× dosing solution was added to each well with 250 μl of hepatocytes cells (1×10^6 viable cells/ml per well) or KHB for control samples to achieve a final compound concentration of 1 μM during incubation. The final solvent concentration was 0.01% DMSO and 0.25% ACN. The culture plate was placed on a rocker and incubated at 37° C., 5% CO2. Samples were collected at time 0, 1, 3, and 6 hours. The loss of parent compound was determined using LC-MS methods against a standard curve.

[2] = cited from earlier work

| Compound | Hheps CL [1] [mL/min/kg] | solubility in methanol [2] |
| --- | --- | --- |
| Cc1ncc(-c2cn3ccnc3c(Nc3ccc(N4CCN(C5COC5)CC4)c(OCCO)c3)n2)nc1N [Ex.-7, 2-(5-((6-(6-amino-5-methylpyrazin-2-yl)imidazo[1,2-a]pyrazin-8-yl)amino)-2-(4-(oxetan-3-yl)piperazin-1-yl)phenoxy)ethanol] | 0.83 |  |
| Nc1cncc(-c2cn3ccnc3c(Nc3ccc(N4CCN(CC(CO)CO)CC4)cc3)n2)n1 [Ex.-6, 2-((4-(4-((6-(6-aminopyrazin-2-yl)imidazo[1,2-a]pyrazin-8-yl)amino)phenyl)piperazin-1-yl)methyl)propane-1,3-diol] | 1.3 |  |
| CC[C@]1(O)C[C@H]2CN(CCc3c([nH]c4ccccc34)[C@@](C(=O)OC)(c3cc4c(cc3OC)N(C=O)[C@H]3[C@@](O)(C(=O)OC)[C@H](OC(C)=O)[C@]5(CC)C=CCN6CC[C@]43[C@@H]65)C2)C1 [Vincristine Sulfate, vincristine sulfate] |  | soluble |
| Cc1c(-c2cncc(N)n2)nc(Nc2ccc(N3CCN(C4COC4)CC3)cc2)c2nccn12 [Ex.-4, 6-(6-aminopyrazin-2-yl)-5-methyl-N-(4-(4-(oxetan-3-yl)piperazin-1-yl)phenyl)imidazo[1,2-a]pyrazin-8-amine] | 1.3 |  |
| Nc1cncc(-c2cn3ccnc3c(Nc3ccc(N4CCN(C5COC5)CC4)c(OCCO)c3)n2)n1 [Ex.-5, 2-(5-((6-(6-aminopyrazin-2-yl)imidazo[1,2-a]pyrazin-8-yl)amino)-2-(4-(oxetan-3-yl)piperazin-1-yl)phenoxy)ethanol] | 1.2 |  |
| Cc1ncc(-c2cn3ccnc3c(Nc3ccc(N4CCN(C5COC5)CC4)cc3)n2)nc1N [Ex.-1, 6-(6-amino-5-methylpyrazin-2-yl)-N-(4-(4-(oxetan-3-yl)piperazin-1-yl)phenyl)imidazo[1,2-a]pyrazin-8-amine] | 2 |  |
| Nc1cncc(-c2cn3ccnc3c(Nc3ccc(N4CCN(C5COC5)CC4)cc3)n2)n1 [Ex.-2, 6-(6-aminopyrazin-2-yl)-N-(4-(4-(oxetan-3-yl)piperazin-1-yl)phenyl)imidazo[1,2-a]pyrazin-8-amine] | 0.917 |  |

Continued, in another order:

| Hheps CL [1] [mL/min/kg] | Compound | solubility in methanol [2] |
| --- | --- | --- |
| 1.5 | Nc1cncc(-c2cn3ccnc3c(Nc3ccc(N4CCO[C@@H](CO)C4)cc3)n2)n1 [Ex.-3, (R)-(4-(4-((6-(6-aminopyrazin-2-yl)imidazo[1,2-a]pyrazin-8-yl)amino)phenyl)morpholin-2-yl)methanol] |  |
| 13.3 | Cc1ncc(-c2cn3ccnc3c(Nc3ccc(N4CCOCC4)cc3)n2)cc1N [6-(5-amino-6-methylpyridin-3-yl)-N-(4-morpholinophenyl)imidazo[1,2-a]pyrazin-8-amine, reference compound] |  |
| 15 | COc1ccc(Nc2nc(-c3ccc(N)nc3)cn3ccnc23)cc1OC [6-(6-aminopyridin-3-yl)-N-(3,4-dimethoxyphenyl)imidazo[1,2-a]pyrazin-8-amine, reference compound] |  |
| 4 | COc1ccc(Nc2nc(-c3cccc(N)c3)cn3ccnc23)cc1OC [6-(3-aminophenyl)-N-(3,4-dimethoxyphenyl)imidazo[1,2-a]pyrazin-8-amine, reference compound] |  |
| 11.3 | Nc1cncc(-c2cn3ccnc3c(Nc3ccc(N4CCOCC4)cc3)n2)c1 [6-(5-aminopyridin-3-yl)-N-(4-morpholinophenyl)imidazo[1,2-a]pyrazin-8-amine, reference compound] |  |
